Data: article PMC11089505, “Structural Elucidation and Antiviral Activity of Covalent Cathepsin L Inhibitors” (Journal of Medicinal Chemistry, 2024)
Values joined by “and” are separate entries in the source; they are usually repeats but may differ in a detail not shown here. Identical values can stand only once. Like-named read-outs stand apart in the source and are kept apart here.

Tests used:
[1] = biological target: T1, CatL (Homo sapiens, UniProt P07711, T223A); assay: CatL inhibition assay (Ki), substrate Z-RR-AMC; format: biochemical
T1 construct: made in house; host or cells: Komagataella pastoris strain GS115
Procedure, shortened: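 Buffer: 50 mM sodium acetate pH 4.0, 50 mM NaCl, 0.1% PEG 6000, 5 mM DTT; epoxide inhibitors separately in 50 mM sodium phosphate pH 6.0 with same additives.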

[2] = tested on: CatL; details: Table S1, SI reference list; cited from earlier work
[3] = tested on: Vero cells; set-up: method as in PMID 32541865; details: another assay using Vero cells; cited from earlier work
[4] = biological target: T2, bovine serum albumin (Bos taurus, UniProt P02769); format: binding
T2 construct: purchased Merck, Germany

[5] = tested on: SARS-CoV-2 wild-type SA-WA1/2020; set-up: method as in PMID 32541865; details: Vero cells, read-out: half-maximal effective concentration; cited from earlier work
[6] = biological target: T1, CatL; assay: NanoDSF, thermal stability of CatL; format: binding
[7] = tested on: SARS-CoV-2-GFP in Vero E6 cells; assay: microbe, parasite or virus in culture; format: cell-based
[8] = Cell viability assay (CellTiter-Blue); details: chlorocebus sabaeus
[9] = biological target: SARS-CoV-2 Mpro (Severe acute respiratory syndrome coronavirus 2, UniProt P0DTD1); format: binding
[10] = in DMSO; compound supply and quality parameters, supplier named in Table S4; cited from earlier work

T1 sequence (P07711 114-333 T223A): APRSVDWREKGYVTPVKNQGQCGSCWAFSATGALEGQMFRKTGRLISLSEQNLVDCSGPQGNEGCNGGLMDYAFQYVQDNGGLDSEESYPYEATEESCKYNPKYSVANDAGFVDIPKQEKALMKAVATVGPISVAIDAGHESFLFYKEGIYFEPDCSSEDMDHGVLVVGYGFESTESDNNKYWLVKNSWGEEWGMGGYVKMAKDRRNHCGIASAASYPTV
T2 sequence (P02769 25-607): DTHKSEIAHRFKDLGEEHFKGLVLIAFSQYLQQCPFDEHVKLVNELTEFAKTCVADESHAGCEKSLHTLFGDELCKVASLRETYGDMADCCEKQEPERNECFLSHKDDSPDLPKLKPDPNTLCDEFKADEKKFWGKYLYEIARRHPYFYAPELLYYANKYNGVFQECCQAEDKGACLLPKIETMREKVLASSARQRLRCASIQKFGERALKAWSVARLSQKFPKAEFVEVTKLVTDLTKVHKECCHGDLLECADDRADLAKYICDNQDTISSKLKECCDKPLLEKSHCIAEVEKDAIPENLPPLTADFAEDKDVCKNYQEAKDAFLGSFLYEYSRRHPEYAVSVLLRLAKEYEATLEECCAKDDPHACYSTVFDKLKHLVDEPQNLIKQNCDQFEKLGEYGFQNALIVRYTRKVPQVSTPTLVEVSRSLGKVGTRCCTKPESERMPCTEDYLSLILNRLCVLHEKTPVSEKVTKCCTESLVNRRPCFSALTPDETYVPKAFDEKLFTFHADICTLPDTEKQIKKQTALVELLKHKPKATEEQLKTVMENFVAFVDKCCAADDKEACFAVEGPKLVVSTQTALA

Compound: CCCC(NC(=O)C(CC(C)C)NC(=O)OCc1ccccc1)C(=O)C(=O)NCc1ccccn1 (stereo not shown) [CI-XII, Benzyl N-[1-[[1.2-dioxo-1-(pyridin-2-ylmethylamino)hexan-3-yl]amino]-4-methyl-1-oxopentan-2-yl]carbamate]
- Residual activity (Vi/V0) ([1]; CI-XII 0.055 uM): 0.9785 and 0.9376
- Residual activity (Vi/V0) ([1]; CI-XII 0.091 uM): 0.9548 and 0.9431
- Residual activity (Vi/V0) ([1]; CI-XII 0.152 uM): 0.9354 and 0.8807
- Residual activity (Vi/V0) ([1]; CI-XII 0.254 uM): 0.873 and 0.9321
- Residual activity (Vi/V0) ([1]; CI-XII 0.423 uM): 0.8656 and 0.8369
- Residual activity (Vi/V0) ([1]; CI-XII 0.705 uM): 0.7709 and 0.7656
- Residual activity (Vi/V0) ([1]; CI-XII 1.176 uM): 0.6641 and 0.6442
- Residual activity (Vi/V0) ([1]; CI-XII 1.960 uM): 0.5112 and 0.4696
- Residual activity (Vi/V0) ([1]; CI-XII 3.266 uM): 0.3345 and 0.322
- Residual activity (Vi/V0) ([1]; CI-XII 5.443 uM): 0.1956 and 0.1842
- Residual activity (Vi/V0) ([1]; CI-XII 9.072 uM): 0.1094 and 0.09936
- Residual activity (Vi/V0) ([1]; CI-XII 15.120 uM): 0.06322 and 0.05321
- Residual activity (Vi/V0) ([1]; CI-XII 25.200 uM): 0.03696 and 0.03366
- Residual activity (Vi/V0) ([1]; CI-XII 42.000 uM): 0.01939 and 0.02113
- Residual activity (Vi/V0) ([1]; CI-XII 70.000 uM): 0.01108 and 0.01542
- fold lower Ki than 13b ([1]; CatL Ki relative to 13b): ~500 fold
- Ki ([1]; Ki, CatL, Z-RR-AMC, pH 4.0, 37 °C): 0.64 nM
- remaining activity at 0.055 µM ([1]; read-out: Residual activity (Vi/V0), CI-XII 0.055 uM): 101%
- remaining activity at 0.091 µM ([1]; read-out: Residual activity (Vi/V0), CI-XII 0.091 uM): 100%
- remaining activity at 0.152 µM ([1]; read-out: Residual activity (Vi/V0), CI-XII 0.152 uM): 102%
- remaining activity at 0.254 µM ([1]; read-out: Residual activity (Vi/V0), CI-XII 0.254 uM): 94.7%
- remaining activity at 0.423 µM ([1]; read-out: Residual activity (Vi/V0), CI-XII 0.423 uM): 84.5%
- remaining activity at 0.705 µM ([1]; read-out: Residual activity (Vi/V0), CI-XII 0.705 uM): 75%
- remaining activity at 1.176 µM ([1]; read-out: Residual activity (Vi/V0), CI-XII 1.176 uM): 65.7%
- remaining activity at 1.96 µM ([1]; read-out: Residual activity (Vi/V0), CI-XII 1.960 uM): 52.2%
- remaining activity at 3.266 µM ([1]; read-out: Residual activity (Vi/V0), CI-XII 3.266 uM): 34.9%
- remaining activity at 5.443 µM ([1]; read-out: Residual activity (Vi/V0), CI-XII 5.443 uM): 17.4%
- remaining activity at 9.072 µM ([1]; read-out: Residual activity (Vi/V0), CI-XII 9.072 uM): 9.65%
- remaining activity at 15.12 µM ([1]; read-out: Residual activity (Vi/V0), CI-XII 15.120 uM): 5.77%
- remaining activity at 25.2 µM ([1]; read-out: Residual activity (Vi/V0), CI-XII 25.200 uM): 3.2%
- remaining activity at 42 µM ([1]; read-out: Residual activity (Vi/V0), CI-XII 42.000 uM): 1.92%
- remaining activity at 70 µM ([1]; read-out: Residual activity (Vi/V0), CI-XII 70.000 uM): 1.07%
- IC50 [2]: 1.6 nM
- CC50 [3]: > 50000 nM
- Tm of bovine serum albumin in the presence of compound [4]: 333.4 ± 0.8 K
- EC50 [5]: < 1000 nM
- 2:1, Tm average (CatL) [6]: 81.6 °C
- 20:1, Tm average (CatL) [6]: 81.3 °C
- ΔTm [K] for CatL, 2:1 ratio [6]: 18.5 ± 0.4 K
- ΔTm (for CatL), 2:1 compound to protein mixing ratio ([6]; pH 5): 18,5 ± 0,4 °C and 18.5 °C
- ΔTm (for CatL), 20:1 compound to protein mixing ratio ([6]; pH 5): 18,2 ± 0,2 °C and 18.2 °C
- EC50 ([7]; Severe acute respiratory syndrome coronavirus 2, Vero C1008, 24 h, read-out: EC50 (24 h)): 6.4 nM
- EC50 ([7]; Severe acute respiratory syndrome coronavirus 2, Vero C1008, 24 h, read-out: EC50 (after 24 h)): 6.37 nM
- EC50 ([7]; Severe acute respiratory syndrome coronavirus 2, Vero C1008, 48 h, read-out: EC50 (after 48 h)): 146 nM
- EC50 ([7]; read-out: EC50 (24 h)): < 10 nM
- CC50 at 48 h [8]: > 10000 nM
- 2:1, Tm average (Mpro) ([9]; 2:1 compound to protein): 66.7 °C
- ΔTm (for Mpro), 2:1 compound to protein mixing ratio ([9]; pH 7.5): 11,7 ± 1,7 °C and 11.7 °C
- Solvent (max. solubility) [10]: 16 mg/mL
